# Measured values taken from patent US12291533B2, “Substituted fused pyrimidine compounds and uses thereof” (Northwestern University, priority 2017, dated 2025).
# Target: T1, glucocerebrosidase (Homo sapiens, UniProt P04062)
# T1 sequence (P04062 40-536): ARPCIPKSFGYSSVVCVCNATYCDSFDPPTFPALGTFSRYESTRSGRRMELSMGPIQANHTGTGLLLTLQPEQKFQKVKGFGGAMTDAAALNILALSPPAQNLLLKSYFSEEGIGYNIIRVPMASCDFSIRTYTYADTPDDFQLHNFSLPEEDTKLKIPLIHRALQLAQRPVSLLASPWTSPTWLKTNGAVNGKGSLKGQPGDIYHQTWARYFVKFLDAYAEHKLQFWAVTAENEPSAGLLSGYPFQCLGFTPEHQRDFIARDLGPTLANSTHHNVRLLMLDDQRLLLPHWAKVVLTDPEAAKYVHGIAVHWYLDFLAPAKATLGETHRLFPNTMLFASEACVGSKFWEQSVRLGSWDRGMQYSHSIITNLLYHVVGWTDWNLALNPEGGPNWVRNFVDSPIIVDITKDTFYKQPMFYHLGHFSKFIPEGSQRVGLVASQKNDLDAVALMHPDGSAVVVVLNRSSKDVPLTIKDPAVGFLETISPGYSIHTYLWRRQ
# Assay: Glucocerebrosidase activity assay with blue substrate (4MU-Glc)
# Assay type: biochemical
# Settings: Table 2; additional compounds, tested as described in Example 2
# Method: Example 2—Glucocerebrosidase Activity Assay with Blue Substrate
# The compounds in DMSO solution 0.5 μL/well were transferred to a black 96-well plate (the final titration was 24 nM to 50 μM, 12 concentrations, 2× dilution). 33.5 μL enzyme solution (7.5 nM final concentration) was transferred to the wells. After 5 min of incubation at room temperature, the enzyme reaction was initiated by the addition of 33 μL/well blue substrate. Final concentration of the blue substrate (4MU-Glc) was 1.5 mM. The blue substrate reaction was terminated by the addition of 33 μL/well stop solution (1 M NaOH and 1 M glycine mixture, pH 10) after 30 min of incubation at 37° C. The fluorescence was then measured in the Biotek Synergy H1 multi-mode plate reader with Ex=365 nm and Em=440 nm.
# Additional compounds were synthesized and tested for glucocerebrosidase modulatory activity as described in Example 1 and Example 2.
AC50 [µM],Emax [%],Structure (SMILES)
39.8,220,CCn1ncc2c(N3CC[C@H](Oc4ccccc4)C3)nc(-c3cccnc3)nc21 [Compound 156]
22.4,580,CCn1ncc2c(N3CC[C@@H](Oc4ccccc4)C3)nc(-c3cccnc3)nc21 [Compound 157]
39.8,163,CCn1ncc2c(N3CC[C@H](Oc4ccccc4)C3)nc(-c3cncc(C(F)(F)F)c3)nc21 [Compound 158]
44.6,242,CCn1ncc2c(N3CC[C@@H](Oc4ccccc4)C3)nc(-c3cncc(C(F)(F)F)c3)nc21 [Compound 159]
28.2,130,CCn1ncc2c(N3CC[C@H](Oc4ccccc4)C3)nc(-c3cncc(Cl)c3)nc21 [Compound 160]
39.8,190,CCn1ncc2c(N3CC[C@@H](Oc4ccccc4)C3)nc(-c3cncc(Cl)c3)nc21 [Compound 161]
25.1,475,CCn1ncc2c(N3CCC[C@H](Oc4ccccc4)C3)nc(-c3cccnc3)nc21 [Compound 163]
28.2,425,CCn1ncc2c(N3CCC[C@@H](Oc4ccccc4)C3)nc(-c3cccnc3)nc21 [Compound 164]
3.98,305,c1ccc(OC2CN(c3nc(-c4cccnc4)nc4ccccc34)C2)cc1 [Compound 165]
6.31,276,c1ccc(OC2CCN(c3nc(-c4cccnc4)nc4ccccc34)CC2)cc1 [Compound 166]
28.2,250,CN(CCOc1ccccc1)c1cc(N2CCC(O)CC2)nc(Cl)n1 [Compound 167]
4,360,CN(CCOc1ccccc1)c1cc(Cl)nc(-c2cccnc2)n1 [Compound 168]
15.8,191,Cc1cc(-c2nc(N(C)CCOc3ccccc3)c3ccccc3n2)ccn1 [Compound 169]
28.2,740,CN(CCOc1ccccc1)c1cc(N2CCC(O)CC2)nc(-c2cccnc2)n1 [Compound 170]
5,280,CN(CCOc1ccccc1)c1cc(N2CC[C@@H](O)C2)nc(-c2cccnc2)n1 [Compound 171]
8.9,525,CN(CCOc1ccccc1)c1cc(C2CC[C@H](O)C2)nc(-c2cccnc2)n1 (stereo partly drawn) [Compound 172]
2.5,260,CN(CCOc1ccccc1)c1cc(N2CC(O)C2)nc(-c2cccnc2)n1 [Compound 173]
14.1,625,CN(CCOc1ccccc1)c1cc(N2CCC(CO)CC2)nc(-c2cccnc2)n1 [Compound 174]
6.31,118,CCCCCCCCCN(C)c1nc(-c2cccnc2)nc2ccccc12 [Compound 179]
5.01,225,CN(CCOc1ccccc1)c1nc(-c2cccnc2)nc2cccnc12 [Compound 182]
2.5,340,CC(C)Cn1ncc2c(N(C)CCOc3ccccc3)nc(-c3cccnc3)nc21 [Compound 183]
2.82,–,CCn1ncc2c(N(C)CCOc3ccc(CNC(=O)CCCCCNC(=O)CCOCCOCCOCCOCCNC(=O)OC(C)(C)C)cc3)nc(-c3cccnc3)nc21 [Compound 184]
0.8,325,CCCn1ncc2c(N(C)CCOc3ccccc3)nc(-c3cccnc3)nc21 [Compound 187]
